From ChEMBL document CHEMBL3286232, “The enone motif of (+)-grandifloracin is not essential for 'anti-austerity' antiproliferative activity” (Bioorg Med Chem Lett, 2014)

Tests used:
[1] = Anti-austerity antiproliferative activity against human PANC1 cells after 72 hrs in presence of 10 % serum; format: cell-based; conditions: PANC-1, 72 h
HT-29 [2] = assay: Anti-austerity antiproliferative activity against human HT-29 cells after 72 hrs in presence of 10 % serum; format: cell-based; conditions: HT-29, 72 h
[3] = Anti-austerity antiproliferative activity against nutrient-deprived human PANC1 cells after 72 hrs in presence of 0.5% serum; format: functional, cell-based; conditions: PANC-1, 72 h
HT-29 [4] = assay: Anti-austerity antiproliferative activity against nutrient-deprived human HT-29 cells after 72 hrs in presence of 0.5% serum; format: functional, cell-based; conditions: HT-29, 72 h

| IC50 (HT-29 [2]) [µM] | IC50 (HT-29 [4]) [µM] | SMILES | IC50 [1] [µM] | IC50 [3] [µM] |
| --- | --- | --- | --- | --- |
| 35 | 22 | COc1ccc(C(=O)OC[C@@]2(O)C(=O)C=C[C@H]3[C@@H]2[C@H]2C=C[C@@H]3C(=O)[C@]2(O)COC(=O)c2ccc(OC)cc2)cc1 | 78 | 52 |
| 39 | 18 | O=C(OC[C@@]1(O)C(=O)C=C[C@H]2[C@@H]1[C@H]1C=C[C@@H]2C(=O)[C@]1(O)COC(=O)c1ccc(Cl)cc1)c1ccc(Cl)cc1 | 84 | 77 |
| 109 | > 500 | O=C(OC[C@@]1(O)C(=O)C=C[C@H]2[C@@H]1[C@H]1C=C[C@@H]2C(=O)[C@]1(O)COC(=O)c1ccccc1)c1ccccc1 | 123 | > 500 |
| 39 | 27 | O=C(OC[C@@]1(O)C(=O)CC[C@H]2[C@@H]1[C@H]1CC[C@@H]2C(=O)[C@]1(O)COC(=O)c1ccccc1)c1ccccc1 | 81 | 86 |
